Source: ChEMBL document CHEMBL5252509, “In depth analysis of kinase cross screening data to identify chemical starting points for inhibition of the Nek family of kinases” (Medchemcomm, 2018)

How the values were obtained:
[1] = target: T1, Serine/threonine-protein kinase Nek2 (Homo sapiens) (UniProt P51955); assay: Inhibition of NEK2 (unknown origin) at 10 uM relative to control
T1 sequence (whole entry): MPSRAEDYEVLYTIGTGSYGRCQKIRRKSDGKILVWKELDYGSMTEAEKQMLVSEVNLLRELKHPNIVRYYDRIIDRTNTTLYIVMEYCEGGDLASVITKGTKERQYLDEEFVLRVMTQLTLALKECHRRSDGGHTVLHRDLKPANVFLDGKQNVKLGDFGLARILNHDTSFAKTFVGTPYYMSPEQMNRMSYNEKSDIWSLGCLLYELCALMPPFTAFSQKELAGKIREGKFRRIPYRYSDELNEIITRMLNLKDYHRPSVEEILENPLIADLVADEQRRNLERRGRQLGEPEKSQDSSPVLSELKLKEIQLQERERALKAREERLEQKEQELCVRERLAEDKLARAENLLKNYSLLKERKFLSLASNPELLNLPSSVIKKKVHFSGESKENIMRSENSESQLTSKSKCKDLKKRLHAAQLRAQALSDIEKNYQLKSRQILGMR

[2] = target: T2, Eukaryotic translation initiation factor 2-alpha kinase 3 (Homo sapiens, UniProt Q9NZJ5); assay: Inhibition of PERK (unknown origin)
T2 sequence (Q9NZJ5 whole entry): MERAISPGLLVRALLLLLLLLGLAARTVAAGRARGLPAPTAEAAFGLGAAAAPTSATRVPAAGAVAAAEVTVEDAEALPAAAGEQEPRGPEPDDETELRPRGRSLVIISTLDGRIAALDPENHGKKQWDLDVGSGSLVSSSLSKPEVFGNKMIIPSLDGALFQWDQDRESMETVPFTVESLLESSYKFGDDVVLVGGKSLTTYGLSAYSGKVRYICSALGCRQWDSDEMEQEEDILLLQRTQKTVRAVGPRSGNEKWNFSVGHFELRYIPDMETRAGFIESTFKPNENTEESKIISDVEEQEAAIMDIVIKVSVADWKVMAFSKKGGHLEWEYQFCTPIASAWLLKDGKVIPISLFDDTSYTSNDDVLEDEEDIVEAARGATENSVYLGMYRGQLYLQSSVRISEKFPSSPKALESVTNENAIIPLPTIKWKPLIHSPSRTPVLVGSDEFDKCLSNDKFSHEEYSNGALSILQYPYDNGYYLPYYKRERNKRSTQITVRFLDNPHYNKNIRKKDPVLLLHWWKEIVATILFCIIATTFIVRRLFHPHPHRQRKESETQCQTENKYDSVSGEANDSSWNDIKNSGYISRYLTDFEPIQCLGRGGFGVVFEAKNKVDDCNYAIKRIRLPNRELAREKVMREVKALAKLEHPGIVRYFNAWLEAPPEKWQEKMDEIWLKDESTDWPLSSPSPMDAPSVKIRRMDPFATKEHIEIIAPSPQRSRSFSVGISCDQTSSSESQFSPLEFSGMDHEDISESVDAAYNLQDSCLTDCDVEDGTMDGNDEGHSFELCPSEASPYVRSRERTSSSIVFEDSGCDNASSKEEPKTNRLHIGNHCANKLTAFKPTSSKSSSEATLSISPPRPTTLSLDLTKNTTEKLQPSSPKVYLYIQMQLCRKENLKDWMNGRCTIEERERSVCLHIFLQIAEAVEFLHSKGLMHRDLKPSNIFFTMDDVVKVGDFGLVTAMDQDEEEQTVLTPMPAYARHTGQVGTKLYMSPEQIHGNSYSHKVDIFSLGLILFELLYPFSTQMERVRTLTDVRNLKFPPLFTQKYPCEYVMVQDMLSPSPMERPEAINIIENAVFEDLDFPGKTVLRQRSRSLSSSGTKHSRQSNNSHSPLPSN

[3] = target: Serine/threonine-protein kinase Nek2 (Homo sapiens, UniProt P51955); assay: Inhibition of NEK2 (unknown origin) assessed as dissociation constant
[4] = target: Serine/threonine-protein kinase Nek5 (Homo sapiens, UniProt Q6P3R8); assay: Inhibition of NEK5 (unknown origin) assessed as dissociation constant
Chain of Serine/threonine-protein kinase Nek5 (Q6P3R8 whole entry): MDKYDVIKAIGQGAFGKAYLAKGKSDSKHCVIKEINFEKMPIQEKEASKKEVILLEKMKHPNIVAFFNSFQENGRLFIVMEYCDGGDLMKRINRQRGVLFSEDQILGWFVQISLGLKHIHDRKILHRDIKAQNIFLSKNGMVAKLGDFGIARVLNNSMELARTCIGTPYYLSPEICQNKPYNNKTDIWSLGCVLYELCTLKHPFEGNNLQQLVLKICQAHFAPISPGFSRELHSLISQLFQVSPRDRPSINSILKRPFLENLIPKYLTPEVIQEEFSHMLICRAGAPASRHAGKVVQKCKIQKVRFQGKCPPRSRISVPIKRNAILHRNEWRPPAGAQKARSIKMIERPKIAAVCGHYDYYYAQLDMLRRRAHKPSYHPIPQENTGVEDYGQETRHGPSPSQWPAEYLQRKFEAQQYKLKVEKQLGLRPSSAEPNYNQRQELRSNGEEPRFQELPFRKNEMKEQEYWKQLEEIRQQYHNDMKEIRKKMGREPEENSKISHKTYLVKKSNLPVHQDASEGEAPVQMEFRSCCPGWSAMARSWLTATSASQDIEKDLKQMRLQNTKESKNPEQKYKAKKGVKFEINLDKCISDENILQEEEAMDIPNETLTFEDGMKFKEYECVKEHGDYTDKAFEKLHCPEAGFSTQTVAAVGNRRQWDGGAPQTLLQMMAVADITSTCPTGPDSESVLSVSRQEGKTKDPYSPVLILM

[5] = target: T3, Serine/threonine-protein kinase Nek10 (Homo sapiens) (UniProt Q6ZWH5); assay: Inhibition of NEK10 (unknown origin) at 10 uM relative to control
T3 sequence (whole entry): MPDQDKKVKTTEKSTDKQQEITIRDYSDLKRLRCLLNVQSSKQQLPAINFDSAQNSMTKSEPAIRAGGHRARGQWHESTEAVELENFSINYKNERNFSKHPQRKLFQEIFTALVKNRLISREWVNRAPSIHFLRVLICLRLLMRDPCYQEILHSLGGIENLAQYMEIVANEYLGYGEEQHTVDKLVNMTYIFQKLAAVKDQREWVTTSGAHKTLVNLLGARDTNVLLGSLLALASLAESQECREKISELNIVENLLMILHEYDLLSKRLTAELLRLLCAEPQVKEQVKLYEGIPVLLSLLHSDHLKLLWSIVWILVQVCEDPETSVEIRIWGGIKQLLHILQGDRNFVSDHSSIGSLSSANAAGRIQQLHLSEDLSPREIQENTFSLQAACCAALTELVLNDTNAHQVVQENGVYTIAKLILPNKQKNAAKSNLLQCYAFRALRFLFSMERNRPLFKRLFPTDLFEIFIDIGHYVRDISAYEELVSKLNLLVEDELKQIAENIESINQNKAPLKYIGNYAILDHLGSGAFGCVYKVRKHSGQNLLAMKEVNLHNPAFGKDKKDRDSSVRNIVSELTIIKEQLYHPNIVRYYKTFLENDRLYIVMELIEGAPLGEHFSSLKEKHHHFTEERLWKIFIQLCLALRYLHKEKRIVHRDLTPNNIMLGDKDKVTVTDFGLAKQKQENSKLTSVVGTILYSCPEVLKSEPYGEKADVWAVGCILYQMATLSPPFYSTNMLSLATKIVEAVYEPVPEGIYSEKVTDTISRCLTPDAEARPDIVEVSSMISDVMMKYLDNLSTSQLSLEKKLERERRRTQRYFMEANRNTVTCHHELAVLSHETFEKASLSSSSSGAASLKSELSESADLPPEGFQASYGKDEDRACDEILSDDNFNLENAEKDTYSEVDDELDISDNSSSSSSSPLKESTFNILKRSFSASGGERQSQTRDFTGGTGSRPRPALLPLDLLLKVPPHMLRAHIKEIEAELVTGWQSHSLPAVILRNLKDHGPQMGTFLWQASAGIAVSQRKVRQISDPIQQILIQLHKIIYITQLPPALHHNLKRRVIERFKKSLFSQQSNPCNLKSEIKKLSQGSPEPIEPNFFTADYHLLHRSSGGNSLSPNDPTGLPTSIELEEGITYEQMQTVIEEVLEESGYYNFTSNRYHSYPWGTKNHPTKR

[6] = target: Mitogen-activated protein kinase 8 (Homo sapiens, UniProt P45983); assay: Inhibition of JNK1 (unknown origin)
Chain of Mitogen-activated protein kinase 8 (P45983 whole entry): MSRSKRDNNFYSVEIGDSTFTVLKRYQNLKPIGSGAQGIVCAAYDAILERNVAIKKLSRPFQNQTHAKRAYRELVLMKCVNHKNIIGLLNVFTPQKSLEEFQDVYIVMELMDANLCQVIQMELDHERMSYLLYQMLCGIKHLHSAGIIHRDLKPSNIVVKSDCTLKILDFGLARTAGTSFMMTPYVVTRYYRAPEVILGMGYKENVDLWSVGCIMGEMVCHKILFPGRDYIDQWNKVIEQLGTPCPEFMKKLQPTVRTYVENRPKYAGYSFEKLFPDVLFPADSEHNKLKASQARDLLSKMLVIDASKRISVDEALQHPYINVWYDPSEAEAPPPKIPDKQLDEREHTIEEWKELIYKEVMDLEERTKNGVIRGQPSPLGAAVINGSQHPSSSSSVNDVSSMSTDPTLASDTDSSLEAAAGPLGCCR

Row | Structure (SMILES) | % control [1] [%] | IC50 [2] [nM] | also measured
1 | CN(C)C/C=C/C(=O)Nc1cccc(C(=O)Nc2ccc(Nc3nccc(-c4c(-c5ccccc5)nn5ccccc45)n3)cc2)c1 | 93 |  | 
2 | Cc1ccc(CC(=O)N2CCc3cc(-c4cn(C)c5ncnc(N)c45)ccc32)cc1 |  | 17 | 
3 | COc1cccc(C2=C(Nc3ccc(Cl)c(C(=O)O)c3)C(=O)NC2=O)c1 |  |  | Kd [3]: 460 nM
4 | Cc1cc(NC(=O)c2cccc(NC(=O)/C=C/CN(C)C)c2)ccc1Nc1nccc(-c2cccnc2)n1 | 100 |  | 
5 | CN(C)C/C=C/C(=O)Nc1ccc(C(=O)Nc2cccc(Nc3nccc(-c4cccnc4)n3)c2)cc1 | 1.1 |  | 
6 | COc1cc(Nc2ncc3c(C)nc(-c4cc5ccccc5[nH]4)n3n2)cc(OC)c1OC |  |  | Kd [4]: 730 nM
7 | Nc1nccc2scc(-c3ccc4c(c3)CCN4C(=O)Cc3ccccc3)c12 |  | < 15 | 
8 | Nc1nccc2scc(-c3ccc4c(c3)CCN4C(=O)Cc3cc(F)ccc3F)c12 |  | < 15 | 
9 | Fc1cc(-c2cc[nH]/c(=N/c3ccc(-n4cnc(N5CCOCC5)n4)cc3)n2)cc(N2CCOCC2)c1 | 94 |  | 
10 | O=C1NC(=O)/C(=C/c2ccc3nccc(-c4ccncc4)c3c2)S1 | 64 |  | % control [5]: 0%
11 | Cn1cc(-c2cnc(N)c3c(-c4ccc5c(c4)CCN5C(=O)Cc4ccccc4)csc23)cn1 |  | < 15 | 
12 | Cc1ccc(NC(=O)c2ccc(NC(=O)/C=C/CN(C)C)cc2)cc1Nc1nccc(-c2cccnc2)n1 | 100 |  | 
13 | Nc1ncc(-c2cn[nH]c2)c2scc(-c3ccc4c(c3)CCN4C(=O)Cc3ccccc3)c12 |  | < 15 | 
14 | CN(C)C/C=C/C(=O)Nc1cccc(C(=O)Nc2ccc(Nc3nccc(/C(C#N)=C4\Nc5ccccc5S4)n3)cc2)c1 | 99 |  | 
15 | CN(C)C/C=C/C(=O)Nc1cccc(C(=O)Nc2ccc(Nc3nccc(-c4cccnc4)n3)cc2)c1 | 86 |  | IC50 [6]: 41 nM
